Reference: patent US20260227408A1, “Compositions and Methods for Modulation of Immune Responses” (Flagship Pioneering Innovations VI, LLC, priority 2022, published 2026)

Legend:
[1] = tested on: Raji cells (human B cell lymphoma); experiment: pooled CRISPR KO screen: Raji cell killing by primary NK cells; type: cell-based; details: CRISPR KO of the protein in Raji cells, 24 hours co-culture with primary NK cells; for inhibitory effect on NK cytotoxicity (loss of function potentiates Raji cell killing): Example 5; for co-stimulatory effect on NK cytotoxicity (loss of function inhibits Raji cell killing): Example 4
Method: CRISPR system was used to generate a pooled KO library comprising 4,708 individual novel proteins within 2,127 lncRNAs and 998 known proteins in Raji cells (human B cell lymphoma). To understand the role of these proteins in modulation of NK cell cytotoxicity we conducted a cell killing assay using primary human NK cells. We examined the change in the initial library representation in Raji cells with the library representation after 24 hours of co-incubation with NK cells. We used known regulators of NK cell cytotoxicity as reference to establish hit significance.
CRISPR KO generation. CRISPR guide RNA library has been designed at ProFound Therapeutics to target 4,708 distinct predicted novel proteins localized within 2,127 lncRNA, 998 known proteins, including positive (inhibitors, for example B2M, TAP1, TAP2, HLA-DM) and negative (co-stimulators, for example, ICAM1, FAS, IL7, DGKE) of NK cell function, and 900 neutral controls (non-targeting and intergenic guide RNAs). The CRISPR guide RNA library was packaged into lentivirus, transduced into Raji Cas9 line at the MOI of 0.3 and selected using puromycin selection as described in [Sanjana N E, Shalem O, Zhang F. Nat. Methods. 2014 August; 11(8):783-4.
NK isolation and expansion. Primary human NK cells were isolated from frozen PBMCs using EasySep human NK cell isolation kit (StemCell, catalog #17955). Primary human NK cells were expanded using immunoCult NK cell expansion kit (StemCell, catalog #100-0711) following manufacturer protocol.
Screen setup. The screen was performed using 4 biological replicates. The NK cytotoxicity assay was performed by co-culturing 20 million Raji CRISPR KO library cells with 60 million primary NK cells for 24 hours in T75 tissue culture flask. NK cells were removed using positive CD56 selection kit (StemCell, catalog #17855). Dead cells were removed using EasySep dead cell removal (Annexin V) kit (StemCell, catalog #17899). Remaining Raji CRISPR KO library cells have been processed to extract genomic DNA. NGS library prep and illumina sequencing was performed on these cells and Raji cells prior to exposure to NK as described in [Sanjana N E, Shalem O, Zhang F. Nat. Methods. 2014 August; 11(8):783-4.
Data analysis. Screen analysis and interpretation was performed using ProFound Tx custom data analysis tools and confirmed with MAGeCK-VISPR as described in [Li W, Koster J, Xu H, Chen C H, Xiao T, Brown M, Liu S. Genome Biology 2015(281)].
Data analysis. Screen analysis and interpretation has been performed using ProFound Tx custom data analysis tools and confirmed with MAGeCK-VISPR as described in [Li W, Koster J, Xu H, Chen C H, Xiao T, Brown M, Liu S. Genome Biology 2015(281)].

[2] = tested on: Interferon Regulatory Factor (IRF) pathway in THP-1 dual reporter cells; experiment: THP-1 dual reporter assay (IRF-Lucia luciferase) with TLR agonists; type: cell-based
Method: (§1) To determine the effect of the Target Protein on TLR activity, the Target Protein, irrelevant proteins and controls were applied+/−established TLR agonists to a commercial reporter cell line which monitors the two main signal transduction pathways that respond to TLR activation. To determine which immune cells are most responsive to the Target Proteins, the Target Proteins were applied to Peripheral Blood Mononuclear Cells (PBMCs) and then 24 hours later the PBMCs were subjected to single cell RNA-seq using cell hashing.
Dual Reporter Assay: From example: NF-kB-SEAP and IRF-Lucia luciferase reporter monocyte (THP1) cells (InvivoGen) are cultured in RPMI 1640 media supplemented with HEPES buffer (10 mM), sodium pyruvate (1 mM), glucose (4.5 g/L), fetal bovine serum (10%), penicillin (100 U/mL), streptomycin ([…]), and 2-mercaptoethanol (0.05 mM). THP1 cells are treated with 100 ng/mL LPS (Sigma-Aldrich) for 24 hrs, the target protein (final conc. 10 μM), or left untreated.
After treatment, THP1 cells are cultured for 24 hrs and then assayed for reporter activity. Both reporter proteins are measurable in the cell culture supernatant when using QUANTI-Blue (InvivoGen), a SEAP detection reagent, and QUANTI-Luc (InvivoGen), a luciferase detection reagent. QUANTI-Blue is a colorimetric enzyme assay developed to determine any alkaline phosphatase activity in a biological sample, such as cell culture supernatant. QUANTI-Luc is a lyophilized assay reagent containing all the components required to quantitatively measure the activity of Lucia Luciferase other coelenterazine-utilizing luciferases. Increased reporter activity after treatment with target protein is observed in cells where the target protein is immune stimulating. Additionally, decreased reporter activity after treatment with the target protein is observed in cells where the target protein is immune dampening.

[3] = tested on: Peripheral Blood Mononuclear Cells (PBMCs); experiment: single cell RNA-seq of PBMCs treated with target protein; type: cell-based, human; details: 24 hours, vs scrambled protein control, FIG. 5A, 5B
Method: as §1
scRNA-seq: From example: Shifts in cell populations after treatment with Target Proteins are assessed by single cell RNA-seq (scRNA-seq). Target proteins (e.g., listed in the Sequence Listing) are synthesized through Fluorenylmethyloxycarbonyl (Fmoc) protection group chemistry using Solid Phase Peptide Synthesis (SPPS). Human primary blood mononuclear cells are seeded at […] in each well of 12-well plate with 1 ml of RPMI-1640 (10% FBS). […]
Post sequencing, reads are aligned to the human reference genome (GENCODE34/GRCH38). Reads are demultiplexed using DNA-barcoded antibodies and run through quality control (g. doublets are removed, singlet cells are selected with less than 15% mitochondria contamination at RNA levels and reads contain higher than 500 genes). […]

[4] = 10 μM, 24 hours, vs scramble peptide, FIG. 4

SEQ ID NO: 35586: novel inhibitory ligand that suppresses NK-mediated cytotoxicity; lncRNA encoded protein (MWQNLNGDISSLWVSSLLAFNQLFCLTAAGLGTAQPP; listed as Homo sapiens)
inhibitory effect on NK cytotoxicity (loss of function potentiates Raji cell killing) [1]: strong phenotypes

SEQ ID NO: 37413: Target Protein validated as a modulator of the innate immune response; toll-like receptor (TLR) inhibitor (MAAPSNKTELAWSPRLAA; listed as Homo sapiens)
IRF response, co-treatment with TLR1/2 agonist [2, 4]: inhibited | IRF response, co-treatment with TLR2 agonist [2, 4]: no significant effect | IRF response, co-treatment with TLR3 agonist [2, 4]: no significant effect | IRF response, co-treatment with TLR4 agonist [2, 4]: inhibited | IRF response, co-treatment with TLR5 agonist [2, 4]: no significant effect | IRF response, co-treatment with TLR6/2 agonist [2, 4]: inhibited | IRF response, co-treatment with TLR7 agonist [2, 4]: no significant effect | IRF response, co-treatment with TLR8 agonist [2, 4]: no significant effect | IRF response, co-treatment with TLR9 agonist [2, 4]: no significant effect | IRF signal transduction pathway response from several TLRs ([2]; THP-1 dual reporter cells, FIG. 3, FIG. 4): significantly blocks | relative IRF activity (reporter gene expression) ([2]; increasing peptide concentrations (0, 2.5, 5, 7.5, and 10 PM) in presence of LPS, 24 hours, FIG. 3): inhibition | effect on T-cells, B-cells, and NK-cells (up- and downregulated genes, scRNA-seq) [3]: relatively small effects | effect on active monocytes and dendritic cells (up- and downregulated genes, scRNA-seq) [3]: strongly affected

SEQ ID NO: 33482: novel co-stimulatory ligand that potentiates NK-mediated cytotoxicity; lncRNA-encoded protein (VVTGSILLSLPITQHLPLKALPRPGLPPFKMSGSVQDLLLGHIALLGLVQVILPPQPPK; listed as Homo sapiens)
co-stimulatory effect on NK cytotoxicity (loss of function inhibits Raji cell killing) [1]: strong phenotypes

B1: SEQ ID NO: 36545: novel inhibitory ligand that suppresses NK-mediated cytotoxicity; lncRNA encoded protein (protein, listed as Homo sapiens)
chain: MPEDLLFLDAAAQGLYFMLWLLSFELSVAVSELLRFTGPWRILSYTVHWVLDMQSVPFIAFLENNN
inhibitory effect on NK cytotoxicity (loss of function potentiates Raji cell killing) [1]: strong phenotypes

B2: SEQ ID NO: 37776: novel co-stimulatory ligand that potentiates NK-mediated cytotoxicity; lncRNA-encoded protein (protein, listed as Homo sapiens)
chain: MACIYPTTFYTSLPTKSLNMGISLTTILILSVAVLLSTAAPPSCRECYQSLHYRGEMQQYFTYHTHIERSCYGNLIEECVESGKSYYKVKNLGVCGSRNGAICPRGKQWLCFTKIGQWGVNTQVLEDIKREQIIAKAKASKPTTPPENRPRHFHSFIQKL
co-stimulatory effect on NK cytotoxicity (loss of function inhibits Raji cell killing) [1]: strong phenotypes

B3: SEQ ID NO: 35050: novel co-stimulatory ligand that potentiates NK-mediated cytotoxicity; lncRNA-encoded protein (protein, listed as Homo sapiens)
chain: IYAHVGTEESSVVAMFSPQELTGEGMGQDPSLCKASVTVMFQVFLMTVCLYLTVLLTNNLLGSKGQHLLSKAQEEFEEN
co-stimulatory effect on NK cytotoxicity (loss of function inhibits Raji cell killing) [1]: strong phenotypes

B4: SEQ ID NO: 2013: novel inhibitory ligand that suppresses NK-mediated cytotoxicity; lncRNA encoded protein (protein, listed as Homo sapiens)
chain: MLSEGKPIPRREGKTATTERTFAVPVWKEIGISWRGLASTAGLFKSSTSILEENNADSRKMACHFGMCLAALLIKGKVLFFTF
inhibitory effect on NK cytotoxicity (loss of function potentiates Raji cell killing) [1]: strong phenotypes
